Measured values from publication PMC6295194 (Science translational medicine, 2018).
Counter-ions that a name gives are not always drawn.

Legend:
[1] = system: rhesus monkeys; assay: Physiological responses by radio-telemetry; type: in vivo, rhesus monkeys (Macaca mulatta); conditions: 1 mg/kg i.m., single monkey
[2] = system: rhesus monkeys; design: species or system rhesus monkeys (Macaca mulatta); conditions: rhesus monkey, in vivo
[3] = molecular target: human NOP receptor (Homo sapiens, UniProt P41146); type: biochemical; conditions: percentage of stimulation of standard full agonist N/OFQ (100%)
human NOP receptor, sequence (P41146 whole entry): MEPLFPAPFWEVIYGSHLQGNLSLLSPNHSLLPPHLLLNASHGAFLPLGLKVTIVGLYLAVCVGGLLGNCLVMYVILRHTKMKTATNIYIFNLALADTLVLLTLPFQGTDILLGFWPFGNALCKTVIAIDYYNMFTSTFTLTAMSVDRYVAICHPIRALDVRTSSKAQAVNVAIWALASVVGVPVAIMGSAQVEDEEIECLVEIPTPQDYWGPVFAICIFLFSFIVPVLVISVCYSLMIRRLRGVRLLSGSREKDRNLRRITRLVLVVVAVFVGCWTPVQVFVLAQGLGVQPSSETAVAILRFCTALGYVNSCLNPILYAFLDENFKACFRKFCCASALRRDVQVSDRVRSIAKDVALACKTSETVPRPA

[4] = system: rhesus monkeys; assay: Warm water tail-withdrawal assay; type: in vivo, rhesus monkeys (Macaca mulatta); conditions: Macaca mulatta, sc, read-out: antinociception ED50
[5] = system: rhesus monkeys; assay: Tolerance to antinociceptive effects after 4 weeks repeated administration; conditions: 2 injections daily for 4 weeks: morphine 1.8 mg/kg, AT-121 0.03 mg/kg

CC(=O)Oc1ccc2c3c1O[C@H]1[C@@H](OC(C)=O)C=C[C@H]4[C@@H](C2)N(C)CC[C@@]341 [heroin, diamorphine HCl]
respiratory depression [1]: caused respiratory depression
time to respiratory depression [1]: < 20 min

O=C1CC[C@@]2(O)[C@H]3Cc4ccc(O)c5c4[C@@]2(CCN3CC2CC2)[C@H]1O5 [naltrexone, naltrexone HCl]
effect of pretreatment on reinforcing effects of oxycodone [2]: effectively attenuated the reinforcing effects of oxycodone

buprenorphine HCl
effect of pretreatment on reinforcing effects of oxycodone [2]: effectively attenuated the reinforcing effects of oxycodone

CN1CC[C@]23c4c5ccc(O)c4O[C@H]2[C@@H](O)C=C[C@H]3[C@H]1C5 [Morphine, Morphine sulfate]
[35S]GTPγS NOP % Stim [3]: 5.4 ± 1%
ED50 [4]: 1 mg/kg
tolerance to antinociceptive effects [5]: decrease in antinociceptive effects
